Experimental data published in patent US20080014253A1, “Lipid-Based Drug Delivery Systems Containing Unnatural Phospholipase A2 Degradable Lipid Derivatives and the Therapeutic Uses Thereof” (priority 2004, published 2008).

Biological target: T1, PLA2 (A. piscivorus piscivorus) (Agkistrodon piscivorus piscivorus, UniProt P51972)
T1 sequence (P51972 1-123): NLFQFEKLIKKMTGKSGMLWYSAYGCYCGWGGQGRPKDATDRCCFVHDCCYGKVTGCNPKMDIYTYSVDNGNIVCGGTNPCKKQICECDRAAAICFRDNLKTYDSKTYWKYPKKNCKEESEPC
Test: PLA2 hydrolysis of unilamellar liposomes (lag time, degree of lipid hydrolysis by HPLC)
Format: biochemical
Settings: for degree of PLA2 lipid hydrolysis: 1000 s after the unset of the burst, HPLC, broad temperature range
Protocol: FIG. 4. Characteristic reaction time profiles at 40° C. for PLA2 hydrolysis of unilamellar. (A) 0.15 mM 1-O-DPPC′ liposomes incubated with 150 nM PLA2 (A. piscivorus piscivorus). (B) 0.15 mM 1-O-DPPG′ liposomes incubated with human secretory PLA2 from 20 μL freshly prepared human tear fluid (B). The PLA2 hydrolysis reaction is monitored by intrinsic fluorescence (solid line) from the enzyme and 90° static light scattering (dashed lines) from the lipid suspension. After adding PLA2 to the equilibrated liposome suspension a characteristic lag time, τ, follows before a sudden increase in the catalytic activity takes place (A).
FIG. 5. PLA2 (A. piscivorus piscivorus) lag time, τ, as a function of temperature for the hydrolysis of 1-O-DPPC′ unilamellar liposomes incorporated with 0 mol % (▪), 2 mol % (▴), and 10 mol % (∘) 1-O-DPPG′ lipids, and 5 mol % (V) DSPE-PEG2000 polymer lipids. The concentration of the liposomes was 0.15 mM and the concentration of PLA2 was 150 nM.
FIG. 6. (A) PLA2 (A. piscivorus piscivorus) hydrolysis of 1-O-DPPC′ liposomes containing 0 mol % (▪), 2 mol % (▴), and 10 mol % (∘) 1-O-DPPG′ lipids, and 5 mol % (▾) DSPE-PEG2000 polymer lipids determined by HPLC [28]. The percent lipid hydrolysis is determined 1000 s after the unset of the burst. The concentration of the liposomes was 0.15 mM and the concentration of PLA2 was 150 nM. (B) Hydrolysis of 1-O-DPPG′ unilamellar liposomes determined by HPLC [28]. The PLA2 catalyzed lipid hydrolysis is determined as a function of time after addition of 20 μL freshly prepared human tear fluid to 0.15 mM 1-O-DPPG′ liposomes.
By replacing the ester linkage in the C-1 position with an ether bond, these unnatural phospholipids can furthermore be used as novel prodrug anticancer lipids to make liposomal microcarriers that can be degraded to active anticancer lysoetherlipids by PLA2 [27]. […] The PLA2 lag time measurements on 1-O-DPPC′ unilamellar liposomes incorporated with small amounts of 1-O-DPPG′ or DSPE-PEG2000 lipids were performed in the gel-to-fluid main phase transition range and the degree of lipid hydrolysis was analyzed using HPLC techniques.
Typical PLA2 (A. piscivorus piscivorus) hydrolysis time course profiles obtained at 40° C. are shown in FIG. 4 for 1-O-DPPC′ and 1-O-DPPG′ unilamellar liposomes. […] The rapid increase in PLA2 activity is reflected by a sharp rise in the intrinsic PLA2 tryptophan fluorescence intensity followed by a concomitant decrease in the 90° static light scattering caused by a change in the morphology of the lipid system when a large amount of the phospholipids are converted to non-bilayer forming lysolipids and free fatty acids. […] Both the fluorescence and light scattering data clearly indicate that the unnatural phospholipids are excellent substrates for PLA2 catalyzed hydrolysis. […]

Row | Molecule | PLA2 lag time, τ (0.15 mM unilamellar liposomes, 150 nM PLA2, 40° C.) | PLA2 lag time (1-O-DPPC′ liposomes incorporated with 5 mol % DPPE-PEG2000 lipopolymers) | degree of PLA2 lipid hydrolysis
1 | CCCCCCCCCCCCCCCCOC[C@@H](COC(=O)CCCCCCCCCCCCCCC)OP(=O)([O-])OCC[N+](C)(C)C [1-O-DPPC′, (S)-1-O-hexadecyl-3-hexadecanoyl-glycero-2-phosphocholine] | observed | very short lag time | remarkably high degree of lipid hydrolysis
2 | (S)-1-O-hexadecyl-3-hexadecanoyl-glycero-2-phosphoglycerol [1-O-DPPG′] |  |  | remarkably high degree of lipid hydrolysis
